Converted amounts (≈) assume the structure as drawn. “And” between values parts separate entries of the source, which are not always exact repeats. Identical values can stand only once. Like-named read-outs stand apart in the source and are kept apart here.
Assays:
[1] = system: S. pyogenes; format: cell-based; parameters: MIC: unit not given beside the values; details: for MIC50 / MIC90: Streptococcus pyogenes, Macr-R
[2] = system: M. fermentans; format: cell-based; details: M. fermentans (15 isolates); for MIC50 / MIC90: Mycoplasmopsis fermentans
[3] = system: S. pyogenes; assay: microbe, parasite or virus in culture; format: cell-based; details: for strains with resistant clones / strains tested: S. pyogenes; for MIC: Streptococcus pyogenes; for days until resistant clones (MIC increase): daily passages, max. 50
[4] = system: S. pyogenes 3029; assay: Intraperitoneal (IP) mouse infection model (ED50); format: in vivo; details: Streptococcus pyogenes, MAC-R S. pyogenes 3029
[5] = system: intraphagocytic L. pneumophila ATCC 33153 (THP-1); format: cell-based; details: for Cs, static concentration: intracellular L. pneumophila ATCC 33153
[6] = system: N. meningitidis; assay: MIC, CLSI broth microdilution, invasive isolates; format: cell-based; details: for MIC / MIC50 / MIC90: Neisseria meningitidis, 62 N. meningitidis isolates
Method: Example. […] Colonization of the nasopharynx (NP) by NM can lead to invasive meningococcal disease. Chemoprophylaxis is used to eradicate NP colonization and prevent transmission to nonimmune contacts. […] 62 isolates (91.9% blood culture) of NM were collected from 29 medical centers in North and South America and Europe (1997-2008). […] Serological identification was performed for serogroups (SGs) B, C, Y and W135.

[7] = system: M. genitalium; format: cell-based; details: M. genitalium (5 isolates)
[8] = system: S. pneumoniae; assay: microbe, parasite or virus in culture; format: cell-based; details: for MIC90: Streptococcus pneumoniae
[9] = system: U. parvum; assay: MIC testing in 10B broth (colour change); format: cell-based, Ureaplasma parvum; details: U. parvum (10 isolates)
[10] = system: S. pyogenes; assay: mouse systemic infection model (PD50); format: in vivo
[11] = system: S. pyogenes; assay: MIC of the strains of the mouse systemic infection model; format: cell-based; details: Streptococcus pyogenes
[12] = system: S. pneumoniae; assay: mouse systemic infection model (PD50); format: in vivo
[13] = system: S. pyogenes ATCC 8668; assay: mouse subcutaneous abscess model; format: in vivo; details: 48 hr. post infection
Method: Example. Mouse Subcutaneous Abscess. Bacteria were prepared from an overnight plate culture by re-suspending in saline and adjusting the suspension to a 0.1 OD at 625 nm of a 1:10 dilution. The adjusted bacterial suspension was mixed 1:2 with cyclodextran beads prepared as per package instructions. The right flanks of the mice were shaven and injected subcutaneously with 0.2 ml of the bacterial inoculum. Two hours post infection mice were treated via oral gavage with either test article or control drug. 48 hours post infection, mice were euthanized, abscesses aseptically removed, homogenized, serially diluted and plated on bacterial growth agar. After overnight incubation, colonies were counted and CFUs/gram of abscess were determined.
Example. Mouse Subcutaneous Abscess˜S. pyogenes ATCC 8668 (Average Log10 CFU/gram of Abscess). Abscess processing 48 hours post infection.

[14] = system: S. pneumoniae; assay: MIC of the strains of the mouse systemic infection model; format: cell-based; details: Streptococcus pneumoniae
[15] = system: S. pneumoniae; assay: neutropenic mouse thigh infection; format: in vivo; details: QD, PO
[16] = read-out: Initial MIC, strain 237 Macrolide-R [LA mutation], parent
[17] = read-out: Initial MIC, strain 2011 Macrolide-R [mef(A)], parent
[18] = read-out: Initial MIC, strain 2094 Macrolide-R [erm(A)], parent
[19] = read-out: Initial MIC, strain 2132 Macrolide-S, parent
[20] = read-out: Initial MIC, strain 2368 Macrolide-R [erm(B)], parent
[21] = read-out: MIC of parents of resistant clones, S. pyogenes
[22] = read-out: Parental MICs, S. pyogenes, 5 strains with varying resistotypes
[23] = read-out: Selected Resistance (MIC), strain 237 Macrolide-R [LA mutation], after serial passages in the drug
[24] = read-out: Selected Resistance (MIC), strain 2011 Macrolide-R [mef(A)], after serial passages in the drug
[25] = read-out: Selected Resistance (MIC), strain 2094 Macrolide-R [erm(A)], after serial passages in the drug
[26] = read-out: Selected Resistance (MIC), strain 2132 Macrolide-S, after serial passages in the drug
[27] = strain 237 Macrolide-R [LA mutation], clone selected with CEM-101
[28] = strain 237 Macrolide-R [LA mutation], clone selected with CLN
[29] = strain 2011 Macrolide-R [mef(A)], clone selected with AZI
[30] = strain 2094 Macrolide-R [erm(A)], clone selected with AZI
[31] = strain 2094 Macrolide-R [erm(A)], clone selected with CEM-101
[32] = strain 2094 Macrolide-R [erm(A)], clone selected with CLN
[33] = strain 2094 Macrolide-R [erm(A)], clone selected with CLR
[34] = strain 2094 Macrolide-R [erm(A)], clone selected with TEL
[35] = strain 2132 Macrolide-S, clone selected with AZI
[36] = strain 2368 Macrolide-R [erm(B)], clone selected with CEM-101
[37] = strain 2368 Macrolide-R [erm(B)], clone selected with TEL
[38] = S. pyogenes (macrolide susceptible)
[39] = S. pneumoniae (macrolide susceptible)

CC[C@H]1OC(=O)[C@H](C)[C@@H](O[C@H]2C[C@@](C)(OC)[C@@H](O)[C@H](C)O2)[C@H](C)[C@@H](O[C@@H]2O[C@H](C)C[C@H](N(C)C)[C@H]2O)[C@](C)(O)C[C@@H](C)CN(C)[C@H](C)[C@@H](O)[C@]1(C)O [AZI, azithromycin]
MIC ([1]; MAC-R S. pyogenes 3029): (>64)
MIC50 ([1]; S. pyogenes TEL R, 10 strains): > 32 µg/mL
MIC90 ([1]; S. pyogenes TEL R, 10 strains): > 32 µg/mL
MIC50 ([1]; S. pyogenes TEL S, 30 strains): > 32 µg/mL
MIC90 ([1]; S. pyogenes TEL S, 30 strains): > 32 µg/mL
MIC50 [2]: 0.5 µg/mL (≈ 0.668 µM)
MIC90 [2]: 0.5 µg/mL (≈ 0.668 µM)
strains with resistant clones / strains tested [3]: 3/4
MIC [3, 16]: 4 µg/mL (≈ 5.34 µM)
MIC [3, 17]: 4 µg/mL (≈ 5.34 µM)
MIC [3, 18]: 4 µg/mL (≈ 5.34 µM)
MIC [3, 19]: 0.06 µg/mL (≈ 0.0801 µM)
MIC [3, 20]: > 64 µg/mL
MIC [3, 21]: 0.06 to 4 µg/mL
MIC [3, 22]: 0.06 to 4 µg/mL (≈ 0.0801 to 5.34 µM)
MIC [3, 23]: 8 µg/mL (≈ 10.7 µM)
MIC [3, 24]: 32 µg/mL (≈ 42.7 µM)
MIC [3, 25]: > 64 µg/mL
MIC [3, 26]: 1 µg/mL (≈ 1.34 µM)
days until resistant clones (MIC increase) [3]: 5 to 35 days
Retest MIC after 10 Antibioticfree Subcultures [3, 27]: 4 µg/mL
Retest MIC after 10 Antibioticfree Subcultures [3, 28]: 8 µg/mL
Retest MIC after 10 Antibioticfree Subcultures [3, 29]: 16 µg/mL
Retest MIC after 10 Antibioticfree Subcultures [3, 30]: >64 µg/mL
Retest MIC after 10 Antibioticfree Subcultures [3, 31]: 4 µg/mL
Retest MIC after 10 Antibioticfree Subcultures [3, 32]: 16 µg/mL
Retest MIC after 10 Antibioticfree Subcultures [3, 33]: >64 µg/mL
Retest MIC after 10 Antibioticfree Subcultures [3, 34]: >64 µg/mL
Retest MIC after 10 Antibioticfree Subcultures [3, 35]: 1 µg/mL
Retest MIC after 10 Antibioticfree Subcultures [3, 36]: >64 µg/mL
Retest MIC after 10 Antibioticfree Subcultures [3, 37]: >64 µg/mL
ED50 [4]: > 150 mg/kg
Cs ([5]; L. pneumophila ATCC 33153, 48 h): 181 ×MIC
Cs, static concentration [5]: 2.90 mg/L
% Susc. ([6]; CLSI (M100-S19, 2009) criteria): 100.0%
MIC [6]: 0.015 to 0.12 µg/mL (≈ 0.02 to 0.16 µM)
MIC50 [6]: 0.06 µg/mL (≈ 0.0801 µM)
MIC90 [6]: 0.12 µg/mL (≈ 0.16 µM)
MIC Range [7]: ≦0.000032-0.005 μg/mL
MIC90 [8]: > 16 µg/mL
MIC Range [9]: 0.5 to 4 µg/mL
MIC50 ([9]; Ureaplasma parvum, read-out: MIC50): 2 µg/mL (≈ 2.67 µM)
MIC90 ([9]; Ureaplasma parvum, read-out: MIC90): 4 µg/mL (≈ 5.34 µM)

CCC[C@@H]1C[C@@H](C(=O)N[C@@H]([C@H]2O[C@H](SC)[C@H](O)[C@@H](O)[C@H]2O)[C@H](C)Cl)N(C)C1 [CLN, clindamycin]
MIC Range [2]: ≦0.008-0.063 μg/mL
MIC50 [2]: 0.016 µg/mL (≈ 0.0376 µM)
MIC90 [2]: 0.031 µg/mL (≈ 0.0729 µM)
strains with resistant clones / strains tested [3]: 2/3 and 2/4
MIC [3, 16]: 0.06 µg/mL (≈ 0.141 µM)
MIC [3, 17]: 0.06 µg/mL (≈ 0.141 µM)
MIC [3, 18]: 0.06 µg/mL (≈ 0.141 µM)
MIC [3, 19]: 0.06 µg/mL (≈ 0.141 µM)
MIC [3, 20]: > 64 µg/mL
MIC [3, 21]: 0.06 µg/mL
MIC [3, 22]: 0.06 µg/mL (≈ 0.141 µM)
MIC [3, 23]: 0.5 µg/mL (≈ 1.18 µM)
MIC [3, 24]: 0.06 µg/mL (≈ 0.141 µM)
MIC [3, 25]: > 64 µg/mL
MIC [3, 26]: 0.06 µg/mL (≈ 0.141 µM)
days until resistant clones (MIC increase) [3]: 34 to 43 days
Retest MIC after 10 Antibioticfree Subcultures [3, 27]: 0.03 µg/mL
Retest MIC after 10 Antibioticfree Subcultures [3, 28]: 1 µg/mL
Retest MIC after 10 Antibioticfree Subcultures [3, 29]: 0.06 µg/mL
Retest MIC after 10 Antibioticfree Subcultures [3, 30]: 0.06 µg/mL
Retest MIC after 10 Antibioticfree Subcultures [3, 31]: 0.06 µg/mL
Retest MIC after 10 Antibioticfree Subcultures [3, 32]: >64 µg/mL
Retest MIC after 10 Antibioticfree Subcultures [3, 33]: 0.06 µg/mL
Retest MIC after 10 Antibioticfree Subcultures [3, 34]: >64 µg/mL
Retest MIC after 10 Antibioticfree Subcultures [3, 35]: 0.03 µg/mL
Retest MIC after 10 Antibioticfree Subcultures [3, 36]: >64 µg/mL
Retest MIC after 10 Antibioticfree Subcultures [3, 37]: >64 µg/mL
nonsusceptibility [8]: 83.3%
MIC90 [8]: > 16 µg/mL

CC[C@H]1OC(=O)[C@H](C)[C@@H](O[C@H]2C[C@@](C)(OC)[C@@H](O)[C@H](C)O2)[C@H](C)[C@@H](O[C@@H]2O[C@H](C)C[C@H](N(C)C)[C@H]2O)[C@](C)(OC)C[C@@H](C)C(=O)[C@H](C)[C@@H](O)[C@]1(C)O [CLR, clarithromycin]
PD50 ([10]; S. pyogenes (erythromycin R)): 22.8 mg/kg
PD50 [10, 38]: 24.8 mg/kg
MIC ([11]; S. pyogenes (erythromycin R)): 1 µg/mL
MIC [11, 38]: 0.015 µg/mL
strains with resistant clones / strains tested [3]: 1/4
MIC [3, 16]: 0.25 µg/mL (≈ 0.334 µM)
MIC [3, 17]: 4 µg/mL (≈ 5.35 µM)
MIC [3, 18]: 0.5 µg/mL (≈ 0.668 µM)
MIC [3, 19]: 0.03 µg/mL (≈ 0.0401 µM)
MIC [3, 20]: > 64 µg/mL
MIC ([3]; read-out: MIC of parent of resistant clone, S. pyogenes): 500 µg/mL
MIC [3, 21]: 0.5 µg/mL
MIC ([3]; read-out: MIC of resistant clones, S. pyogenes): > 64 µg/mL
MIC [3, 22]: 0.03 to 4 µg/mL (≈ 0.0401 to 5.35 µM)
MIC [3, 23]: 1 µg/mL (≈ 1.34 µM)
MIC [3, 24]: 8 µg/mL (≈ 10.7 µM)
MIC [3, 25]: > 64 µg/mL
MIC [3, 26]: 0.016 µg/mL (≈ 0.0214 µM)
days until resistant clones (MIC increase) [3]: 6 days
Retest MIC after 10 Antibioticfree Subcultures [3, 27]: 1 µg/mL
Retest MIC after 10 Antibioticfree Subcultures [3, 28]: 0.5 µg/mL
Retest MIC after 10 Antibioticfree Subcultures [3, 29]: 4 µg/mL
Retest MIC after 10 Antibioticfree Subcultures [3, 30]: 1 µg/mL
Retest MIC after 10 Antibioticfree Subcultures [3, 31]: 8 µg/mL
Retest MIC after 10 Antibioticfree Subcultures [3, 32]: 1 µg/mL
Retest MIC after 10 Antibioticfree Subcultures [3, 33]: >64 µg/mL
Retest MIC after 10 Antibioticfree Subcultures [3, 34]: 8 µg/mL
Retest MIC after 10 Antibioticfree Subcultures [3, 35]: 0.25b μg/ml
Retest MIC after 10 Antibioticfree Subcultures [3, 36]: >64 µg/mL
Retest MIC after 10 Antibioticfree Subcultures [3, 37]: >64 µg/mL
PD50 [12, 39]: 32.1 mg/kg
PD50 ([12]; S. pneumoniae (mefR)): >30 mg/kg
PD50 ([12]; S. pneumoniae serotype 19A): 5.03 mg/kg
Average Log10 CFU/gram of Abscess ([13]; 10 mg/Kg): 7.63 Log10 CFU/gram
Average Log10 CFU/gram of Abscess ([13]; 20 mg/Kg): 7.82 Log10 CFU/gram
MIC [14, 39]: > 16 µg/mL
MIC ([14]; S. pneumoniae (mefR), read-out: MIC): 0.5 µg/mL
MIC ([14]; S. pneumoniae serotype 19A, read-out: MIC): > 16 µg/mL
Cs, static concentration [5]: 0.12 mg/L
MIC [6]: 0.015 to 0.25 µg/mL (≈ 0.0201 to 0.334 µM)
MIC50 [6]: 0.03 µg/mL (≈ 0.0401 µM)
MIC90 [6]: 0.12 µg/mL (≈ 0.16 µM)
MIC90 [8]: > 32 µg/mL
Dose for 1 log10 Reduction from 24 hour controls ([15]; S. pneumoniae 1629): 4.5 mg/Kg
Dose for 3 log10 Reduction from 24 hour controls ([15]; S. pneumoniae 1629): 13.5 mg/Kg
Dose for 1 log10 Reduction from 24 hour controls ([15]; S. pneumoniae 6303): 5.5 mg/Kg
Dose for 2 log10 Reduction from 24 hour controls ([15]; S. pneumoniae 6303): 9.2 mg/Kg
Dose for 3 log10 Reduction from 24 hour controls ([15]; S. pneumoniae 6303): 14.0 mg/Kg
